From patent US4794187A, “^35 S-labelled 1.4-dihydropyridines” (Bayer Aktiengesellschaft, priority 1986, dated 1988) come the findings set out here.

One test deals with T1, skeletal muscle receptor (Homo sapiens, UniProt Q13698).
T1 construct: dissociation rate constant (at 37° C.) of 0.070±0.01 min^-1 on skeletal muscle; from tissue
Briefly: binding to the skeletal muscle 1,4-dihydropyridine receptor (radioligand dissociation). The note with it: 37° C., read-out: dissociation rate constant (converted).

Another test has as its system brain receptor. Kind of test: binding to the brain 1,4-dihydropyridine receptor (radioligand dissociation). The note with it: 37° C.

T1 sequence (Q13698 whole entry): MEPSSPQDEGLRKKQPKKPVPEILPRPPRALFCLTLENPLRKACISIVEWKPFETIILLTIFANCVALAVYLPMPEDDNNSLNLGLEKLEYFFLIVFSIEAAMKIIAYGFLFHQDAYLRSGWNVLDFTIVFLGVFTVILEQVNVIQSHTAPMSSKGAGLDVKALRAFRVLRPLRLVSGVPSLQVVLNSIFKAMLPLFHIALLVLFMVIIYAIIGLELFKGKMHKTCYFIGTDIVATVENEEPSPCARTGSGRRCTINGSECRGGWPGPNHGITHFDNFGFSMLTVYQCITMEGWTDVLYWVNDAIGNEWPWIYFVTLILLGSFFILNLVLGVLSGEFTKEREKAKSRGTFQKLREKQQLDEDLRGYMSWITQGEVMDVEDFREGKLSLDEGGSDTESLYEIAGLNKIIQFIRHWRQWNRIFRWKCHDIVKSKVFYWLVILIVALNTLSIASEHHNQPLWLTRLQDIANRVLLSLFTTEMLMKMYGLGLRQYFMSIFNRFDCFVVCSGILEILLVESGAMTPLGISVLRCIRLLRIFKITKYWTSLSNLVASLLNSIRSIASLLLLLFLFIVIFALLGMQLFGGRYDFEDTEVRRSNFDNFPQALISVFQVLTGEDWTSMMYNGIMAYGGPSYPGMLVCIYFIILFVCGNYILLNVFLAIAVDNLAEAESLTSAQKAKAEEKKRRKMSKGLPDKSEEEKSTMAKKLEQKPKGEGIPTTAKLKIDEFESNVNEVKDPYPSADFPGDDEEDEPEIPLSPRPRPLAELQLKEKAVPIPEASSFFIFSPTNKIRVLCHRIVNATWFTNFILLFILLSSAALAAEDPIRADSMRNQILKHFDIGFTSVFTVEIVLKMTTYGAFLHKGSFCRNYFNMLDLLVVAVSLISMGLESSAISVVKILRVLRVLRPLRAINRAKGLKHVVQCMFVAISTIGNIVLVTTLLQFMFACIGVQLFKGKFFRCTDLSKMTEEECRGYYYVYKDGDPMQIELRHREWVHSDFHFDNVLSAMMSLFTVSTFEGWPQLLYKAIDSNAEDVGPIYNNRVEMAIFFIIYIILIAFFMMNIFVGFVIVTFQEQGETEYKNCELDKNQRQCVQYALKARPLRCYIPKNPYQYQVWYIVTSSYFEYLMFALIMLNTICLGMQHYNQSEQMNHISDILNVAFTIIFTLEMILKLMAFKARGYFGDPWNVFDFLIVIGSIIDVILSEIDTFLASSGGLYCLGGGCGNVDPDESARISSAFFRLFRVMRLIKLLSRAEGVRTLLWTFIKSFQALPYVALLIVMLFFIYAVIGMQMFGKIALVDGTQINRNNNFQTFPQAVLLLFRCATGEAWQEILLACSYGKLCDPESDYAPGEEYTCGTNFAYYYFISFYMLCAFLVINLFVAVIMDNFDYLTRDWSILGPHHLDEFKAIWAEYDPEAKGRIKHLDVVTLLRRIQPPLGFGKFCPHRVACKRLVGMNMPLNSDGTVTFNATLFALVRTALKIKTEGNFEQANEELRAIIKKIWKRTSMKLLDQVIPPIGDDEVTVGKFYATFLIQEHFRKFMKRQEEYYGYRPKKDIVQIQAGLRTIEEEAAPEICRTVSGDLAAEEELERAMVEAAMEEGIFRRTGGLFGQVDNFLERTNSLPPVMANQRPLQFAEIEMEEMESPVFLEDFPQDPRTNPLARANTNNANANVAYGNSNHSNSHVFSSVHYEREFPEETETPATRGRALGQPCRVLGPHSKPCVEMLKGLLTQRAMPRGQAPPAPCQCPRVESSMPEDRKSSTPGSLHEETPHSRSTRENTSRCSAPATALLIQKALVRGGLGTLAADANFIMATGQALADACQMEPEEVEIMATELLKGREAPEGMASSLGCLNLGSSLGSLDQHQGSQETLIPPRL
T1 sequence (P54289 25-957 partner limits assumed): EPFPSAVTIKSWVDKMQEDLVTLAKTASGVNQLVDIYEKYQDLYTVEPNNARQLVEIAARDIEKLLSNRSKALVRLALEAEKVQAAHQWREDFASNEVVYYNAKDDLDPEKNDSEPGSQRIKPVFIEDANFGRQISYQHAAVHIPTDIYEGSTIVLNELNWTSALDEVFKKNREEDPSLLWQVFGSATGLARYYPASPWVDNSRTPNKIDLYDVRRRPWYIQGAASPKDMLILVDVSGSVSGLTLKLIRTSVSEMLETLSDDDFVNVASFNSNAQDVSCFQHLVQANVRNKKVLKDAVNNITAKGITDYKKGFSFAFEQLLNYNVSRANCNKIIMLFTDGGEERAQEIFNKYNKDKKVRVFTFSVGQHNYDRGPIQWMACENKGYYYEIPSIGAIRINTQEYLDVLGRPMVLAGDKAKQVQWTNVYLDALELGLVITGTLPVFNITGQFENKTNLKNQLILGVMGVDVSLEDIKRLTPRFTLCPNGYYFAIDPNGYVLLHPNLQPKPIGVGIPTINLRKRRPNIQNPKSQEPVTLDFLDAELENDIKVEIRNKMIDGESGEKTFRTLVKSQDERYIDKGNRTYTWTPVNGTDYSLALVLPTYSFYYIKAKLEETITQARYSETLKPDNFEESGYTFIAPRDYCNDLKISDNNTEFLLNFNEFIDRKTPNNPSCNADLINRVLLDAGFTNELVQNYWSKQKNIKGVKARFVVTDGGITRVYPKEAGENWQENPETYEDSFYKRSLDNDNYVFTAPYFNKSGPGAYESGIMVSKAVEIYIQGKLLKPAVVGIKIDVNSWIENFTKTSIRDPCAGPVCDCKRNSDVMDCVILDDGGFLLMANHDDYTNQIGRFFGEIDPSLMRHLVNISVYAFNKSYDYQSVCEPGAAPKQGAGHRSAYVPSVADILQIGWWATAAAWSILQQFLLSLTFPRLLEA
T1 sequence (P54289 958-1103 partner limits assumed): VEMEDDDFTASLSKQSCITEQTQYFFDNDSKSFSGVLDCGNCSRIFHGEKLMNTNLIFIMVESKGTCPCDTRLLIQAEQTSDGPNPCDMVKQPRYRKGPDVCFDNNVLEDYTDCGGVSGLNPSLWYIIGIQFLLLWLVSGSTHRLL
T1 sequence (Q02641 whole entry partner): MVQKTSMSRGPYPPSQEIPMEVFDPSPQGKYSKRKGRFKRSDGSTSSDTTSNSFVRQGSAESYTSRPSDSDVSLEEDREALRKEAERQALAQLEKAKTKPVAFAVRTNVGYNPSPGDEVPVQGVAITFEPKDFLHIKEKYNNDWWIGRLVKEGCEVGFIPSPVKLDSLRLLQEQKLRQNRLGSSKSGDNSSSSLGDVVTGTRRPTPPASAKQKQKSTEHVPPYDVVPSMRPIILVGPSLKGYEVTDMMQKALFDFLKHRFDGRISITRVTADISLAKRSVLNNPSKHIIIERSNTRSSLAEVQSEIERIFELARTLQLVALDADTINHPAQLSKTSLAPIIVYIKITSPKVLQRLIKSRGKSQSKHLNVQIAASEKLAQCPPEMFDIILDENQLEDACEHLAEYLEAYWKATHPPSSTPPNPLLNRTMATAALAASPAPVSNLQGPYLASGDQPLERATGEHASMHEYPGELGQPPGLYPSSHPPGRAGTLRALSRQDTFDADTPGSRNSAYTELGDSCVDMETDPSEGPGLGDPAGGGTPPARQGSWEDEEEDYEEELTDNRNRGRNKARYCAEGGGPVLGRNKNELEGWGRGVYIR
T1 sequence (Q06432 whole entry partner): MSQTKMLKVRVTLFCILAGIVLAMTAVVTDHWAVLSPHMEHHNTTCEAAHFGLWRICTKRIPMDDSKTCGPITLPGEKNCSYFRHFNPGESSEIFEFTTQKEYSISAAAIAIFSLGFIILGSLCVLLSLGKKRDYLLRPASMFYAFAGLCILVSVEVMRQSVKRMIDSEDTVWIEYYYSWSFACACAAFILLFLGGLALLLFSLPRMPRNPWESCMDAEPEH

With `CCOC(=O)C1=C(C)NC(C)=C(C(=O)OCCNC(=O)[C@H](CC[35S]C)NC(=O)OC(C)(C)C)C1c1ccccc1C(F)(F)F` (some centres unmarked) [Example 1], at skeletal muscle receptor, the koff was 0.00117 s⁻¹. In the test with brain receptor, the dissociation rate constant was 0.02 min⁻¹.
